Source: PubChem BioAssay AID330 (DTP/NCI, 2004)
Values joined by “and” are separate entries in the source; they are usually repeats but may differ in a detail not shown here. Equal entries are not always repeated. Toxic doses and inconclusive results are not listed.

Test system: P388 leukemia ip, CD2F1 mice, survival T/C
Assay: NCI In Vivo Anticancer Drug Screen. Data for tumor model P388 Leukemia (intraperitoneal) in CD2F1 (CDF1) mice
Details: endpoint: median survival time, higher = longer survival
Method in brief: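 Mice carrying the transplanted tumor received test compound or vehicle. Survival was recorded in each group, and the value is the treated-group measurement divided by that of the vehicle-treated control group.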

[1] = dose: 60.0 mg/kg/injection, schedule: Q01DX005 (ip), vehicle: saline with Tween-80
[2] = dose: 120.0 mg/kg/injection, schedule: Q01DX005 (ip), vehicle: saline with Tween-80
[3] = dose: 240.0 mg/kg/injection, schedule: Q01DX005 (ip), vehicle: saline with Tween-80
[4] = dose: 50.0 mg/kg/injection, schedule: Q01DX009 (ip), vehicle: saline
[5] = dose: 100.0 mg/kg/injection, schedule: Q01DX009 (ip), vehicle: saline
[6] = dose: 25.0 mg/kg/injection, schedule: Q01DX009 (ip), vehicle: saline with Tween-80
[7] = dose: 50.0 mg/kg/injection, schedule: Q01DX009 (ip), vehicle: saline with Tween-80
[8] = dose: 100.0 mg/kg/injection, schedule: Q01DX009 (ip), vehicle: saline with Tween-80
[9] = dose: 100.0 mg/kg/injection, schedule: Q04DX003 (ip), vehicle: saline with Tween-80
[10] = dose: 200.0 mg/kg/injection, schedule: Q04DX003 (ip), vehicle: saline with Tween-80
[11] = dose: 400.0 mg/kg/injection, schedule: Q04DX003 (ip), vehicle: saline with Tween-80
[12] = dose: 25.0 mg/kg/injection, schedule: Q01DX009 (ip), vehicle: Klucel (hydroxypropylcellulose) (HPC)
[13] = dose: 12.5 mg/kg/injection, schedule: Q01DX005 (ip), vehicle: Klucel (hydroxypropylcellulose) (HPC)
[14] = dose: 25.0 mg/kg/injection, schedule: Q01DX005 (ip), vehicle: Klucel (hydroxypropylcellulose) (HPC)
[15] = dose: 50.0 mg/kg/injection, schedule: Q01DX005 (ip), vehicle: Klucel (hydroxypropylcellulose) (HPC)
[16] = dose: 100.0 mg/kg/injection, schedule: Q01DX009 (ip), vehicle: Klucel (hydroxypropylcellulose) (HPC)

For `CC[CH](C)[Sn](=[O])[CH](C)CC` (stereo not drawn), the T/C (dose: 0.78 mg/kg/injection, schedule: Q01DX009 (ip), vehicle: saline) was 97 % of control, the T/C (dose: 1.56 mg/kg/injection, schedule: Q01DX009 (ip), vehicle: saline) was 105 % of control and the T/C (dose: 3.12 mg/kg/injection, schedule: Q01DX009 (ip), vehicle: saline) was 113 % of control.

For `CCOc1ccc(/C=N/NC(=O)CC2CCCCC2)cc1OC`, the T/C [1] was 90 % of control, the T/C [2] was 87 % of control and the T/C [3] was 95 % of control.

In the case of `CCOC(=O)/C=C(/CC(=O)OCC)OCC`, the T/C [4] is reported as 100 % of control, the T/C [5] is reported as 89 % of control and the T/C (dose: 200.0 mg/kg/injection, schedule: Q01DX009 (ip), vehicle: saline) is reported as 90 % of control. For the same compound, the T/C (dose: 400.0 mg/kg/injection, schedule: Q01DX009 (ip), vehicle: saline) was 101 % of control.

`N#CC(C#N)=Cc1ccc2c(c1)CCC2` was tested, and the T/C [6] was 90 % of control, the T/C [7] was 95 % of control and the T/C [8] was 109 % of control.

In the case of `CCCCNc1nc(SC)nc2nc[nH]c12`, the T/C (dose: 50.0 mg/kg/injection, schedule: Q04DX003 (ip), vehicle: saline with Tween-80) is reported as 100 % of control, the T/C [9] is reported as 98 % of control and the T/C [10] is reported as 96 % of control. The T/C [11] was 95 % of control.

For `C/C(CCCC(C)(C)C(=O)O)=N\NC(N)=O`, the T/C [1] was 100 % of control, the T/C [2] was 94 % of control and the T/C [3] was 97 % of control.

For `c1cc[c]([Sn]2([c]3ccccc3)[O]CCNCC[O]2)cc1`, the T/C (dose: 25.0 mg/kg/injection, schedule: Q01DX005 (ip), vehicle: saline) was 150 % of control, the T/C (dose: 50.0 mg/kg/injection, schedule: Q01DX005 (ip), vehicle: saline) was 153 % of control and the T/C (dose: 100.0 mg/kg/injection, schedule: Q01DX005 (ip), vehicle: saline) was 155 % of control and 160 % of control.

`CCN(CC)[P+](c1cc(OC)ccc1OC)(N(CC)CC)N(CC)CC` was tested, and the T/C (dose: 1.56 mg/kg/injection, schedule: Q01DX009 (ip), vehicle: Klucel (hydroxypropylcellulose) (HPC)) was 121 % of control, the T/C (dose: 3.13 mg/kg/injection, schedule: Q01DX009 (ip), vehicle: Klucel (hydroxypropylcellulose) (HPC)) was 106 % of control and the T/C [12] was 91 % of control.

In the case of `COc1cc2c(c(C(C)(C)C)c1)OC1(O)C2=CC(=O)C=C1C(C)(C)C` (stereo not drawn), the T/C (dose: 6.25 mg/kg/injection, schedule: Q01DX005 (ip), vehicle: Klucel (hydroxypropylcellulose) (HPC)) is reported as 120 % of control, the T/C [13] is reported as 120 % of control and the T/C [14] is reported as 114 % of control. For the same compound, the T/C [15] was 110 % of control and the T/C (dose: 100.0 mg/kg/injection, schedule: Q01DX005 (ip), vehicle: Klucel (hydroxypropylcellulose) (HPC)) was 107 % of control.

For `O=C1CC2(C(=O)N1CN1CCCCC1)c1ccccc1-c1ccccc12`, the T/C (dose: 50.0 mg/kg/injection, schedule: Q01DX009 (ip), vehicle: Klucel (hydroxypropylcellulose) (HPC)) was 104 % of control and 106 % of control, the T/C [16] was 102 % of control and 115 % of control and the T/C (dose: 200.0 mg/kg/injection, schedule: Q01DX009 (ip), vehicle: Klucel (hydroxypropylcellulose) (HPC)) was 156 % of control.

With `CS(=O)(=O)N1C2CC3CCCCC3CC21` (stereo not drawn) the T/C (dose: 25.0 mg/kg/injection, schedule: Q04DX002 (ip), vehicle: saline with Tween-80) was 99 % of control, the T/C (dose: 50.0 mg/kg/injection, schedule: Q04DX002 (ip), vehicle: saline with Tween-80) was 99 % of control and the T/C (dose: 100.0 mg/kg/injection, schedule: Q04DX002 (ip), vehicle: saline with Tween-80) was 105 % of control and 110 % of control. For the same compound, the T/C (dose: 200.0 mg/kg/injection, schedule: Q04DX002 (ip), vehicle: saline with Tween-80) was 112 % of control and the T/C (dose: 400.0 mg/kg/injection, schedule: Q04DX002 (ip), vehicle: saline with Tween-80) was 112 % of control.

`NCCN(Cc1ccccc1)C1CC1` was tested, and the T/C [4] was 98 % of control and the T/C [5] was 91 % of control.

`CCN=C(c1ccc(NC(=O)c2ccc(C(=O)Nc3ccc(C(=NCC)N(CC)CC)cc3)cc2)cc1)N(CC)CC` was tested, and the T/C (dose: 0.39 mg/kg/injection, schedule: Q01DX005 (ip), vehicle: Klucel (hydroxypropylcellulose) (HPC)) was 102 % of control, the T/C (dose: 0.78 mg/kg/injection, schedule: Q01DX005 (ip), vehicle: Klucel (hydroxypropylcellulose) (HPC)) was 100 % of control and the T/C (dose: 1.56 mg/kg/injection, schedule: Q01DX005 (ip), vehicle: Klucel (hydroxypropylcellulose) (HPC)) was 101 % of control.

In the case of `O=C(O)C(=O)c1ccccc1`, the T/C (dose: 50.0 mg/kg/injection, schedule: Q04DX003 (ip), vehicle: saline) is reported as 100 % of control, the T/C (dose: 100.0 mg/kg/injection, schedule: Q04DX003 (ip), vehicle: saline) is reported as 105 % of control and the T/C (dose: 200.0 mg/kg/injection, schedule: Q04DX003 (ip), vehicle: saline) is reported as 100 % of control.

`COc1ccc(-c2cnc(C(N)=O)c(=O)[nH]2)cc1` was tested, and the T/C [9] was 104 % of control, the T/C [10] was 95 % of control and the T/C [11] was 100 % of control.

In the case of `CC(C)c1ccccc1N1C(=O)CC(Sc2ccccc2N)C1=O` (stereo not drawn), the T/C [13] is reported as 107 % of control, the T/C [14] is reported as 102 % of control and the T/C [15] is reported as 105 % of control and 90 % of control. The T/C (dose: 200.0 mg/kg/injection, schedule: Q01DX005 (ip), vehicle: Klucel (hydroxypropylcellulose) (HPC)) was 90 % of control.

In the case of `O=C(O)/C=C/CCCCCCO`, the T/C (dose: 100.0 mg/kg/injection, schedule: Q04DX002 (ip), vehicle: saline + alcohol) is reported as 91 % of control, the T/C (dose: 200.0 mg/kg/injection, schedule: Q04DX002 (ip), vehicle: saline + alcohol) is reported as 100 % of control and the T/C (dose: 400.0 mg/kg/injection, schedule: Q04DX002 (ip), vehicle: saline + alcohol) is reported as 106 % of control.

With `O=C(Oc1c(F)c(F)c(F)c(F)c1F)N(CCCl)CCCl` the T/C (dose: 100.0 mg/kg/injection, schedule: Q01DX001 (ip), vehicle: Klucel (hydroxypropylcellulose) (HPC)) was 101 % of control, the T/C (dose: 200.0 mg/kg/injection, schedule: Q01DX001 (ip), vehicle: Klucel (hydroxypropylcellulose) (HPC)) was 104 % of control and the T/C (dose: 400.0 mg/kg/injection, schedule: Q01DX001 (ip), vehicle: Klucel (hydroxypropylcellulose) (HPC)) was 94 % of control.

In the case of `O=[N+]([O-])c1ccc2c(Cl)c3ccccc3nc2c1`, the T/C [7] is reported as 95 % of control, the T/C [8] is reported as 103 % of control and the T/C (dose: 200.0 mg/kg/injection, schedule: Q01DX009 (ip), vehicle: saline with Tween-80) is reported as 94 % of control.

For `CCSc1nc2ccc(N=Cc3ccccc3O)cc2s1`, the T/C (dose: 12.5 mg/kg/injection, schedule: Q01DX009 (ip), vehicle: Klucel (hydroxypropylcellulose) (HPC)) was 99 % of control and 88 % of control, the T/C [12] was 101 % of control and 93 % of control and the T/C [16] was 106 % of control and 218 % of control and 91 % of control.

In the case of `O=C(O)C(=O)O.[Ti].[c-]1[c-][c-][cH-][c-]1.[c-]1[c-][c-][cH-][c-]1`, the T/C (dose: 3.75 mg/kg/injection, schedule: Q01DX005 (ip), vehicle: Klucel (hydroxypropylcellulose) (HPC)) is reported as 94 % of control, the T/C (dose: 7.5 mg/kg/injection, schedule: Q01DX005 (ip), vehicle: Klucel (hydroxypropylcellulose) (HPC)) is reported as 99 % of control and the T/C (dose: 15.0 mg/kg/injection, schedule: Q01DX005 (ip), vehicle: Klucel (hydroxypropylcellulose) (HPC)) is reported as 99 % of control. For the same compound, the T/C (dose: 30.0 mg/kg/injection, schedule: Q01DX005 (ip), vehicle: Klucel (hydroxypropylcellulose) (HPC)) was 100 % of control.

With `CCCCCCCOC(=O)c1ccc(O)cc1` the T/C (dose: 12.5 mg/kg/injection, schedule: Q01DX009 (ip), vehicle: saline with Tween-80) was 105 % of control, the T/C [6] was 100 % of control and the T/C [7] was 99 % of control and 96 % of control. The T/C [8] was 95 % of control.

In the case of `CCOC(=O)c1cc[nH]c1CC(=O)OC`, the T/C (dose: 100.0 mg/kg/injection, schedule: Q01DX001 (ip), vehicle: saline with Tween-80) is reported as 99 % of control, the T/C (dose: 200.0 mg/kg/injection, schedule: Q01DX001 (ip), vehicle: saline with Tween-80) is reported as 96 % of control and the T/C (dose: 400.0 mg/kg/injection, schedule: Q01DX001 (ip), vehicle: saline with Tween-80) is reported as 100 % of control.

`O=C1CN2C(=O)C1(c1ccccc1)C(=O)NC2=S` (stereo not drawn) was tested, and the T/C (dose: 100.0 mg/kg/injection, schedule: Q04DX002 (ip), vehicle: Klucel (hydroxypropylcellulose) (HPC)) was 105 % of control, the T/C (dose: 200.0 mg/kg/injection, schedule: Q04DX002 (ip), vehicle: Klucel (hydroxypropylcellulose) (HPC)) was 106 % of control and the T/C (dose: 400.0 mg/kg/injection, schedule: Q04DX002 (ip), vehicle: Klucel (hydroxypropylcellulose) (HPC)) was 106 % of control.

`O=C(O)c1ccc(O)c(O)c1.[NH2-].[NH2-].[NH2-].[NH2-].[Ru+4]` was tested, and the T/C (dose: 87.5 mg/kg/injection, schedule: Q04DX002 (ip), vehicle: saline) was 104 % of control, the T/C (dose: 175.0 mg/kg/injection, schedule: Q04DX002 (ip), vehicle: saline) was 108 % of control and the T/C (dose: 350.0 mg/kg/injection, schedule: Q04DX002 (ip), vehicle: saline) was 105 % of control.
